# Measurements from patent US7256286B2, “Bryostatin analogues, synthetic methods and uses” (The Board of Trustees of the Leland Stanford Junior …, priority 1999, dated 2007).
# How the values were obtained:
# Assay type in all cases: cell-based
# [1] = test system: A549/ATCC; test: NCI human cancer cell line growth inhibition: A549/ATCC; settings: NSC Lung
# [2] = test system: SK-OV-3; test: NCI human cancer cell line growth inhibition: SK-OV-3; settings: SK-OV-3, Ovarian
# [3] = test system: T-47D; test: NCI human cancer cell line growth inhibition: T-47D; settings: Breast
# [4] = test system: K-562; test: NCI human cancer cell line growth inhibition: K-562; settings: K-562, Leukemia
# [5] = test system: NCI human cancer cell-lines; test: In vitro inhibition of growth in human cancer cell lines (all cell groups); settings: on average, all cell groups tested
# [6] = test system: TK-10; test: NCI human cancer cell line growth inhibition: TK-10; settings: TK-10, Renal
# [7] = test system: SK-MEL-28; test: NCI human cancer cell line growth inhibition: SK-MEL-28; settings: SK-MEL-28, Melanoma
# [8] = test system: UACC-257; test: NCI human cancer cell line growth inhibition: UACC-257; settings: UACC-257, Melanoma
# [9] = test system: SK-MEL-5; test: NCI human cancer cell line growth inhibition: SK-MEL-5; settings: SK-MEL-5, Melanoma
# [10] = test system: HCT-15; test: NCI human cancer cell line growth inhibition: HCT-15; settings: Homo sapiens; HCT-15, Colon
# [11] = test system: OVCAR-4; test: NCI human cancer cell line growth inhibition: OVCAR-4; settings: OVCAR-4, Ovarian
# [12] = test system: CAKI-1; test: NCI human cancer cell line growth inhibition: CAKI-1; settings: CAKI-1, Renal
# [13] = test system: ACHN; test: NCI human cancer cell line growth inhibition: ACHN; settings: Renal
# [14] = test system: P388 cell line; test: P388 murine lymphocytic leukemia cell assay
# Method: Cells from a P388 cell line (CellGate, Inc., Sunnyvale, Calif.) are grown in RPMI 1640 cell medium containing fetal calf serum (10%), L-glutamine, penicillin, streptomycin and are split twice weekly. All compounds are first diluted with DMSO. Later serial dilutions are done with a phosphate buffer solution (HYQ DPBS modified phosphate buffered saline). All dilutions are done in glass vials and the final DMSO concentration is always below 0.5% by volume. Final two-fold dilutions are done in a 96 well plate using cell media so that each well contains 50 μL. All compounds are assayed in quadruplicate over 12 concentrations. Cell concentration is measured using a hemacytometer and the final cell concentration is adjusted to 1×10^4 cells/mL with cell medium. The resulting solution of cells (50 μL) is then added to each well and the plates are incubated for 5 days in a 37° C., 5% CO2, humidified incubator (Sanyo CO2 incubator). MTT solution (3-[4,5-dimethylthiazol-2-yl]-2,5-diphenyltetrazolium bromide, 10 μL) is then added to each well and the plates are re-incubated under identical conditions for 2 h. To each well is then added acidified isopropanol (150 μL of i-PrOH solution containing 0.05 N HCl) and mixed thoroughly. The plates are then scanned at 595 nm and the absorbances are read (Wallac Victor 1420 Multilabel Counter). The resulting data is then analyzed to determine an ED50 value using the Prism software package (GraphPad).
# [15] = test system: UACC-62; test: NCI human cancer cell line growth inhibition: UACC-62; settings: UACC-62, Melanoma
# [16] = test system: EKVX; test: NCI human cancer cell line growth inhibition: EKVX; settings: NSC Lung
# [17] = test system: A498; test: NCI human cancer cell line growth inhibition: A498; settings: A498, Renal
# [18] = test system: DU-145; test: NCI human cancer cell line growth inhibition: DU-145; settings: DU-145, Prostate
# [19] = test system: OVCAR-3; test: NCI human cancer cell line growth inhibition: OVCAR-3; settings: OVCAR-3, Ovarian
# [20] = test system: MDA-MB-435; test: NCI human cancer cell line growth inhibition: MDA-MB-435
# [21] = test system: SF-295; test: NCI human cancer cell line growth inhibition: SF-295; settings: SF-295, CNS
# [22] = test system: SK-MEL-2; test: NCI human cancer cell line growth inhibition: SK-MEL-2; settings: SK-MEL-2, Melanoma
smiles,measurement,setting,value
CCCCCCCC(=O)O[C@H]1/C(=C/C(=O)OC)C[C@H]2C[C@H](CO)OC(=O)C[C@H](O)C[C@@H]3CCCC(CC4CCO[C@H](/C=C/C(C)(C)[C@]1(O)O2)O4)O3 [Formula IIa (702.1)],GI50,[1]; Homo sapiens,0.24 µM
same,Difference (GI50 desmethyl vs Bryo-1),[1],−1.42
same,GI50,[2]; Homo sapiens,50.1 µM
same,Difference (GI50 desmethyl vs Bryo-1),[2],0.80
same,Difference (GI50 desmethyl vs Bryo-1),[3],0.18
same,GI50,"[3]; Homo sapiens, T47D",9.55 µM
same,GI50,"[4]; Homo sapiens, K562",0.0316 µM
same,Difference (GI50 desmethyl vs Bryo-1),[4],−2.10
same,more active than bryostatin-1 by,[4],more than 2 orders of magnitude
same,potency compared with bryostatin-1,[5],"at least as potent, on average, as bryostatin-1"
same,GI50,[6]; Homo sapiens,0.0933 µM
same,Difference (GI50 desmethyl vs Bryo-1),[6],−2.03
same,more active than bryostatin-1 by,[6],more than 2 orders of magnitude
same,GI50,[7]; Homo sapiens,21.4 µM
same,Difference (GI50 desmethyl vs Bryo-1),[7],0.43
same,GI50,[8]; Homo sapiens,7.41 µM
same,Difference (GI50 desmethyl vs Bryo-1),[8],−0.03
same,GI50,[9]; Homo sapiens,0.372 µM
same,Difference (GI50 desmethyl vs Bryo-1),[9],−0.73
same,GI50,[10],17.4 µM
same,GI50,[11]; Homo sapiens,7.08 µM
same,Difference (GI50 desmethyl vs Bryo-1),[11],0.35
same,Difference (GI50 desmethyl vs Bryo-1),[12],−0.30
same,GI50,[12]; Homo sapiens,2 µM
same,GI50,[13]; Homo sapiens,1.15 µM
same,Difference (GI50 desmethyl vs Bryo-1),[13],−0.44
same,activity in P388 assay compared with other analogues,"[14]; 702.1 vs corresponding C26 methyl-containing analogue, 48, 49 among C20 ester analogues",significantly higher activity
same,EC50,"[14]; Mus musculus, P388, 120 h, 5 days incubation, MTT, read-out: P388 Assay ED50",0.017 µM
same,GI50,[15]; Homo sapiens,7.76 µM
same,Difference (GI50 desmethyl vs Bryo-1),[15],0.19
same,GI50,[16]; Homo sapiens,2.63 µM
same,Difference (GI50 desmethyl vs Bryo-1),[16],−0.28
same,Difference (GI50 desmethyl vs Bryo-1),[17],−1.38
same,GI50,[17]; Homo sapiens,0.417 µM
same,Difference (GI50 desmethyl vs Bryo-1),[18],−0.02
same,GI50,[18]; Homo sapiens,9.55 µM
same,GI50,[19]; Homo sapiens,14.8 µM
same,Difference (GI50 desmethyl vs Bryo-1),[19],0.27
same,GI50,"[20]; Homo sapiens, MDA-MB-435, Breast",0.0219 µM
same,more active than bryostatin-1 by,[20]; MDA-MB435 (breast),more than 2 orders of magnitude
same,Difference (GI50 desmethyl vs Bryo-1),"[20]; MDA-MB-435, Breast",−2.56
same,GI50,[21]; Homo sapiens,0.891 µM
same,Difference (GI50 desmethyl vs Bryo-1),[21],−0.85
same,GI50,[22]; Homo sapiens,9.55 µM
same,Difference (GI50 desmethyl vs Bryo-1),[22],0.18
